# Laboratory results: patent US9056876B2, “Substituted 1H-pyrazolo[3′,4′,4,5]thieno[2,3-b]pyridin-3-amine analogs as positive allosteric modulators of the muscarinic acetylcholine receptor M4” (VANDERBILT UNIVERSITY, priority 2011, dated 2015)
# Target: T1, mAChR M4 (UniProt P08173)
# T1 construct: hM1 and hM4 cDNAs were purchased from Missouri S&T cDNA Resource
# T1 sequence (P08173 1-479): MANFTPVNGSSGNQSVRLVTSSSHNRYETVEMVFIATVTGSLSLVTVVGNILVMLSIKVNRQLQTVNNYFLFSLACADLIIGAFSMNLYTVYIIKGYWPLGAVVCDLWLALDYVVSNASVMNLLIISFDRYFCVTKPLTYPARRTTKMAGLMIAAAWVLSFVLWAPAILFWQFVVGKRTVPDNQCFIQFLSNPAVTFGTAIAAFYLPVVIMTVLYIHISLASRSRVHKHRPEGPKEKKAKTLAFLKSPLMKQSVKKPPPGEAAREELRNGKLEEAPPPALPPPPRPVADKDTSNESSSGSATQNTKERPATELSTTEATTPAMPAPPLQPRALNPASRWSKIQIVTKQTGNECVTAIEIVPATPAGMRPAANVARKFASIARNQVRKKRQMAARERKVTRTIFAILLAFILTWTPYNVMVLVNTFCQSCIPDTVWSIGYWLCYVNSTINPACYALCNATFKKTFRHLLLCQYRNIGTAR
# Assay: mAChR M4 cell-based functional assay (calcium mobilization, Fluo-4, FDSS)
# Details: for Emax (%)*: % ACh maximum at 30 μM; for pEC50: positive allosteric modulator activity, EC20 acetylcholine response; for pEC50 / EC50: CHO-K1 cells; for EC50: positive allosteric modulator activity: concentration-dependent increase in the EC20 acetylcholine response, >10 μM estimated for low potency (no plateau)
# Procedure, shortened: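 Compound responses (11-point, 1:3 series) were followed as calcium fluorescence ratio on FDSS in Gqi5-coupled M4 CHO-K1 cells (human or rat) loaded with Fluo-4. Acetylcholine followed at EC20 (144 s) then EC80 (230 s). EC50/Emax from four-parameter logistic fits of direct, EC20-potentiating or EC80-inhibiting effects.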
Structure (SMILES),Emax (%)*,pEC50,EC50
"Cc1cc(C)c2c(n1)sc1c(NCc3[nH]cnc3C)nn(C)c12 [Compound 92, 1,6,8-trimethyl-N-((4-methyl-1H-imidazol-5-yl)methyl)-1H-pyrazolo[3′,4′:4,5]thieno[2,3-b]pyridin-3-amine]",50%,6.37,430 nM
"Cc1cc(C)c2c(n1)sc1c(NCc3scnc3C)nn(C)c12 [Compound 93, 1,6,8-trimethyl-N-((4-methylthiazol-5-yl)methyl)-1H-pyrazolo[3′,4′:4,5]thieno[2,3-b]pyridin-3-amine]",53%,7.42,38 nM
"Cc1cc(C)c2c(n1)sc1c(NCc3ccc(S(C)(=O)=O)c(F)c3)nn(C)c12 [Compound 94, N-(3-fluoro-4-(methylsulfonyl)benzyl)-1,6,8-trimethyl-1H-pyrazolo[3′,4′:4,5]thieno[2,3-b]pyridin-3-amine]",74%,7.09,81 nM
"Cc1cc(C)c2c(n1)sc1c(NCc3ccco3)nn(CCO)c12 [Compound 95, 2-(3-((furan-2-ylmethyl)amino)-6,8-dimethyl-1H-pyrazolo[3′,4′:4,5]thieno[2,3-b]pyridin-1-yl)ethanol]",67%,6.92,120 nM
"Cc1cc(C)c2c(n1)sc1c(N)nn(CCO)c12 [Compound 96, 2-(3-amino-6,8-dimethyl-1H-pyrazolo[3′,4′:4,5]thieno[2,3-b]pyridin-1-yl)ethanol]",37%,5.27,5400 nM
"Cc1cc(C)c2c(n1)sc1c(NCc3cc(C)on3)nn(C)c12 [Compound 97, 1,6,8-trimethyl-N-((5-methylisoxazol-3-yl)methyl)-1H-pyrazolo[3′,4′:4,5]thieno[2,3-b]pyridin-3-amine]",59%,5.43,3700 nM
"Cc1csc(CNc2nn(C)c3c2sc2nc(C)cc(C)c23)n1 [Compound 98, 1,6,8-trimethyl-N-((4-methylthiazol-2-yl)methyl)-1H-pyrazolo[3′,4′:4,5]thieno[2,3-b]pyridin-3-amine]",53%,6.28,520 nM
"Cc1cc(C)c2c(n1)sc1c(NCc3sc(C)nc3C)nn(C)c12 [Compound 99, N-((2,4-dimethylthiazol-5-yl)methyl)-1,6,8-trimethyl-1H-pyrazolo[3′,4′:4,5]thieno[2,3-b]pyridin-3-amine]",66%,7.03,93 nM
"Cc1cc(C)c2c(n1)sc1c(NCc3nccs3)nn(C)c12 [Compound 100, 1,6,8-trimethyl-N-(thiazol-2-ylmethyl)-1H-pyrazolo[3′,4′:4,5]thieno[2,3-b]pyridin-3-amine]",47%,6.37,430 nM
"Cc1cc(C)c2c(n1)sc1c(NCc3cccs3)nn(CCO)c12 [Compound 101, 2-(6,8-dimethyl-3-((thiophen-2-ylmethyl)amino)-1H-pyrazolo[3′,4′:4,5]thieno[2,3-b]pyridin-1-yl)ethanol]",73%,7.31,49 nM

# Continued, values first:
Emax (%)*,pEC50,EC50,Structure (SMILES)
69%,5.96,1100 nM,"Cc1cc(C)c2c(n1)sc1c(NC3CNC3)nn(C)c12 [Compound 102, N-(azetidin-3-yl)-1,6,8-trimethyl-1H-pyrazolo[3′,4′:4,5]thieno[2,3-b]pyridin-3-amine]"
67%,6.62,240 nM,"Cc1cc(C)c2c(n1)sc1c(NC3CCOC3)nn(C)c12 (stereo not drawn) [Compound 103, 1,6,8-trimethyl-N-(tetrahydrofuran-3-yl)-1H-pyrazolo[3′,4′:4,5]thieno[2,3-b]pyridin-3-amine]"
61%,6.00,1000 nM,"Cc1cc(C)c2c(n1)sc1c(NCC(C)(C)C)nn(C)c12 [Compound 104, 1,6,8-trimethyl-N-neopentyl-1H-pyrazolo[3′,4′:4,5]thieno[2,3-b]pyridin-3-amine]"
35%,<5.00,> 10000 nM,"Cc1cc(C)c2c(n1)sc1c(NC3CCN(C)C3)nn(C)c12 (stereo not drawn) [Compound 105, ,6,8-trimethyl-N-(1-methylpyrrolidin-3-yl)-1H-pyrazolo[3′,4′:4,5]thieno[2,3-b]pyridin-3-amine]"
73%,7.57,27 nM,"Cc1cc(C)c2c(n1)sc1c(NC3CN(C(=O)OC(C)(C)C)C3)nn(C)c12 [Compound 106, tert-butyl 3-((1,6,8-trimethyl-1H-pyrazolo[3′,4′:4,5]thieno[2,3-b]pyridin-3-yl)amino)azetidine-1-carboxylate]"
65%,6.70,200 nM,"Cc1cc(C)c2c(n1)sc1c(NC3CCCC3)nn(CCO)c12 [Compound 107, 2-(3-(cyclopentylamino)-6,8-dimethyl-1H-pyrazolo[3′,4′:4,5]thieno[2,3-b]pyridin-1-yl)ethanol]"
69%,6.09,820 nM,"Cc1cc(C)c2c(n1)sc1c(NC3CCOC3)nn(CCO)c12 (stereo not drawn) [Compound 108, 2-(6,8-dimethyl-3-((tetrahydrofuran-3-yl)amino)-1H-pyrazolo[3′,4′:4,5]thieno[2,3-b]pyridin-1-yl)ethanol]"
68%,6.70,200 nM,"Cc1cc(C)c2c(n1)sc1c(NC3CCSC3)nn(CCO)c12 (stereo not drawn) [Compound 109, 2-(6,8-dimethyl-3-((tetrahydrothiophen-3-yl)amino)-1H-pyrazolo[3′,4′:4,5]thieno[2,3-b]pyridin-1-yl)ethanol]"
72%,7.08,84 nM,"Cc1cc(C)c2c(n1)sc1c(NCc3scnc3C)nn(CCO)c12 [Compound 110, 2-(6,8-dimethyl-3-(((4-methylthiazol-5-yl)methyl)amino)-1H-pyrazolo[3′,4′:4,5]thieno[2,3-b]pyridin-1-yl)ethanol]"
50%,<5.00,> 10000 nM,"CCOC(=O)CNc1n[nH]c2c1sc1nc(C)cc(C)c12 [Compound 111, ethyl 2-((6,8-dimethyl-1H-pyrazolo[3′,4′:4,5]thieno[2,3-b]pyridin-3-yl)amino)acetate]"
71%,5.68,2100 nM,"Cc1cc(C)c2c(n1)sc1c(NC(C)C)nn(CCO)c12 [Compound 112, 2-(3-(isopropylamino)-6,8-dimethyl-1H-pyrazolo[3′,4′:4,5]thieno[2,3-b]pyridin-1-yl)ethanol]"
62%,6.37,430 nM,"Cc1cc(C)c2c(n1)sc1c(NC3CCCSC3)nn(CCO)c12 (stereo not drawn) [Compound 113, 2-(6,8-dimethyl-3-((tetrahydro-2H-thiopyran-3-yl)amino)-1H-pyrazolo[3′,4′:4,5]thieno[2,3-b]pyridin-1-yl)ethanol]"
70%,6.43,370 nM,"Cc1cc(C)c2c(n1)sc1c(NC3CCSCC3)nn(CCO)c12 [Compound 114, 2-(6,8-dimethyl-3-((tetrahydro-2H-thiopyran-4-yl)amino)-1H-pyrazolo[3′,4′:4,5]thieno[2,3-b]pyridin-1-yl)ethanol]"
